Structures can show the parent of a compound that is named as a salt.

This assay concerns the target T1, recombinant IRAK-4 kinase (Homo sapiens, UniProt Q9NWZ3).
T1 construct: purchased Millipore, USA
T1 sequence (Q9NWZ3 1-460): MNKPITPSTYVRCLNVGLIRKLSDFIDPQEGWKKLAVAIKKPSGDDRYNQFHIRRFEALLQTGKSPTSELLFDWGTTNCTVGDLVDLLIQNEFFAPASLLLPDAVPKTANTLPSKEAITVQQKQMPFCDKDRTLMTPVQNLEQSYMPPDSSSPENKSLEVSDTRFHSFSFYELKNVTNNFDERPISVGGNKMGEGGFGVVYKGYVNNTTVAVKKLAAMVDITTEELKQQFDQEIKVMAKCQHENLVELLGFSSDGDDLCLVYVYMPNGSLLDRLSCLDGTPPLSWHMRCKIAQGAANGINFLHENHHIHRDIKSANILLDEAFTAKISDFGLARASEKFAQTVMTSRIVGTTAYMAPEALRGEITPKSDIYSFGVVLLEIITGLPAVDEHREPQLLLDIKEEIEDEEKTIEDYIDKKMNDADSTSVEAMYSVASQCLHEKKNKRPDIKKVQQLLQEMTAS
Kind of assay: IRAK-4 biochemical assay (TR-FRET). To be noted: IRAK-4 enzyme, 20 μM ATP; for inhibition at 0.1 µM: compound at 0.1 μM; for inhibition at 1 µM: compound at 1 μM; for IC50: dose response. Here is the method: Compounds were tested for their potential to inhibit IRAK-4 enzyme in a TR-FRET assay using recombinant IRAK-4 kinase from Millipore, USA. The assay buffer was 50 mM Tris-HCl pH 7.5, 20 mM MgCl2, 1 mM EGTA, 2 mM DTT, 3 mM MnCl2 and 0.01% Tween 20.5 ng of IRAK-4 kinase was used for the assay. After pre-incubation of enzyme with test compound for 30 minutes at room temperature, a substrate mixture containing 100 nM Biotin Histone H3 (Millipore, USA) and 20 μM ATP (Sigma, USA) was added and the reaction was incubated for 30 min. Post incubation, the reaction was stopped by the addition of stop mix containing 40 mM EDTA, 1 nM of Europium-Anti-Phospho-Histone H3 (Ser10) antibody (Perkin Elmer, USA) and 20 nM SureLight Allophycocyanin-Streptavidin (Perkin Elmer, USA). The fluorescence emission at 615 nm and 665 nm were measured at an excitation of 340 nm and the percent inhibition was estimated from the ratio of the fluorescence intensities [(F665/F615)×10000]. […] The IC50 values were estimated by fitting the dose-response data to sigmoidal dose response (variable slope), curve fitting program using Graphpad Prism software Version 6.01.
(In general: In TR-FRET formats the signal depends on donor and acceptor labels being close together.)

On to `Cc1cc(-c2nc(C(=O)Nc3cc4c(cnn4C)cc3N3CC[C@H](O)C3)c(C)o2)ccn1` [Example 41, (S)—N—(5-(3-hydroxypyrrolidin-1-yl)-1-methyl-1H-indazol-6-yl)-5-methyl-2-(2-methylpyridin-4-yl)oxazole-4-carboxamide hydrochloride], for which the inhibition at 0.1 µM was found to be 0% and the inhibition at 1 µM worked out at 17%.
As to `Cc1cc(-c2nc(C(=O)Nc3cc4nn(C)cc4cc3N3CCCC(O)C3)co2)ccn1` (stereo not drawn) [Example 13, N—(5-(3-hydroxypiperidin-1-yl)-2-methyl-2H-indazol-6-yl)-2-(2-methylpyridin-4-yl)oxazole-4-carboxamide hydrochloride], the inhibition at 0.1 µM was determined as 79% and the half-inhibitory concentration (IC50) was under 100 nM.
For `Cn1ncc2cc(N3CC[C@H](O)C3)c(NC(=O)c3coc(-c4cccnc4N)n3)cc21` [Example 23, (S)-2-(2-aminopyridin-3-yl)—N—(5-(3-hydroxypyrrolidin-1-yl)-1-methyl-1H-indazol-6-yl)oxazole-4-carboxamide], the inhibition at 0.1 µM worked out at 81%, the inhibition at 1 µM stood at 95% and the IC50 was under 100 nM.
Regarding `CCn1ncc2cc(N3CC[C@H](O)C3)c(NC(=O)c3coc(-c4ccnc(C)c4)n3)cc21` [Example 32, (S)—N—(1-ethyl-5-(3-hydroxypyrrolidin-1-yl)-1H-indazol-6-yl)-2-(2-methylpyridin-4-yl)oxazole-4-carboxamide hydrochloride], the inhibition at 0.1 µM was 62%, the inhibition at 1 µM is 95% and the half-maximal inhibitory concentration (IC50) was under 100 nM.
For `Cc1cc(-c2nc(C(=O)Nc3cc4c(cnn4C)cc3N3C4CCC3CC(O)C4)co2)ccn1` (stereo not drawn) [Example 38, N—(5-(3-hydroxy-8-azabicyclo[3.2.1]octan-8-yl)-1-methyl-1H-indazol-6-yl)-2-(2-methylpyridin-4-yl)oxazole-4-carboxamide] the same measures were 5%, 77% and over 250 nM.
For `Cn1ncc2cc(N3CCCCC3)c(NC(=O)c3cccc(N4CC[C@H](O)C4)n3)cc21` [Example 9, (S)-6-(3-hydroxypyrrolidin-1-yl)—N—(1-methyl-5-(piperidin-1-yl)-1H-indazol-6-yl)picolinamide] the same measures were 83%, 78% and over 250 nM.
Take `CN1CCN(c2nc(C(=O)Nc3cc4c(cnn4C)cc3N3CC[C@H](O)C3)co2)CC1` [Example 30, (S)—N—(5-(3-hydroxypyrrolidin-1-yl)-1-methyl-1H-indazol-6-yl)-2-(4-methylpiperazin-1-yl)oxazole-4-carboxamide hydrochloride]: the inhibition at 0.1 µM turned out to be 0% and the inhibition at 1 µM amounted to 20%.
With `Cn1ncc2cc(N3CC[C@H](O)C3)c(NC(=O)c3coc(C4=CCNCC4)n3)cc21` [Example 34, (S)—N—(5-(3-hydroxypyrrolidin-1-yl)-1-methyl-1H-indazol-6-yl)-2-(1,2,3,6-tetrahydropyridin-4-yl)oxazole-4-carboxamide hydrochloride], the inhibition at 0.1 µM turned out to be 0% and the inhibition at 1 µM was determined as 41%.
In the case of `Cn1ncc2cc(N3CC[C@H](O)C3)c(NC(=O)c3cccc(N4CC[C@H](O)C4)n3)cc21` [Example 25, 6-((S)-3-hydroxypyrrolidin-1-yl)—N—(5-((S)-3-hydroxypyrrolidin-1-yl)-1-methyl-1H-indazol-6-yl)picolinamide], the inhibition at 0.1 µM was determined as 24%, the inhibition at 1 µM came to 71% and the IC50 was over 250 nM.
The matching figures for `Cn1ncc2cc(N3CC[C@H](O)C3)c(NC(=O)c3coc(-c4ccnc(C5CC5)c4)n3)cc21` [Example 46, (S)-2-(2-cyclopropylpyridin-4-yl)—N—(5-(3-hydroxypyrrolidin-1-yl)-1-methyl-1H-indazol-6-yl)oxazole-4-carboxamide hydrochloride]: 93%, 97% and under 100 nM.
For `Cn1ncc2cc(N3CCCCC3)c(NC(=O)c3cccc(N4CC[C@H](N)C4)n3)cc21` [Example 8, (S)-6-(3-aminopyrrolidin-1-yl)—N—(1-methyl-5-(piperidin-1-yl)-1H-indazol-6-yl)picolinamide] the same measures were 90%, 56% and over 250 nM.
For `Cc1nccc(-c2nc(C(=O)Nc3cc4c(cnn4C)cc3N3CC[C@H](O)C3)co2)n1` [Example 35, (S)—N—(5-(3-hydroxypyrrolidin-1-yl)-1-methyl-1H-indazol-6-yl)-2-(2-methylpyrimidin-4-yl)oxazole-4-carboxamide hydrochloride] the same measures were 45%, 93% and 100 to 250 nM.
Regarding `Cc1cc(-c2nc(C(=O)Nc3cc4nn(C)cc4cc3N3CCCCC3)co2)ccn1` [Example 2, N—(2-methyl-5-(piperidin-1-yl)-2H-indazol-6-yl)-2-(2-methylpyridin-4-yl)oxazole-4-carboxamide hydrochloride], the inhibition at 1 µM was determined as 98% and the half-inhibitory concentration (IC50) is under 100 nM.
Take `Cc1cc(-c2nc(C(=O)Nc3cc4c(cnn4C)cc3N3CCC(O)(CO)CC3)co2)ccn1` [Example 40, N-(5-(4-hydroxy-4-(hydroxymethyl)piperidin-1-yl)-1-methyl-1H-indazol-6-yl)-2-(2-methylpyridin-4-yl)oxazole-4-carboxamide]: the inhibition at 0.1 µM was 95%, the inhibition at 1 µM stood at 98% and the IC50 is under 100 nM.
Regarding `Cc1cc(-c2nc(C(=O)Nc3cc4c(cc3N3CCC(CO)CC3)c(C)nn4C)co2)ccn1` [Example 45, N—(5-(4-(hydroxymethyl)piperidin-1-yl)-1,3-dimethyl-1H-indazol-6-yl)-2-(2-methylpyridin-4-yl)oxazole-4-carboxamide hydrochloride], the inhibition at 0.1 µM was 2% and the inhibition at 1 µM is 12%.

A word on the inhibition: it is the share of the control response that was lost under treatment. A word on the IC50: it is the concentration that gives 50% inhibition.

The values are drawn from US20170152263A1, “Substituted Indazole Compounds as IRAK4 Inhibitors” (AURIGENE DISCOVERY TECHNOLOGIES LIMITED, priority 2014, published 2017).
